Reference: US20220025419A1, “N-GLYCOSYLATION OF PEPTIDES AND PROTEINS” (priority 2013, published 2022)

What was measured:
PglB [1] = target: T1, PglB (Campylobacter jejuni subsp. jejuni serotype O:2, UniProt Q0P9C8); settings: glycolipid 1-200 μM, peptide 20 μM, PglB 0.44 μM, reaction time <2 h, duplicate
Protocol: Reaction mixtures were prepared as described above in Example 6 and incubated in a thermo cycler for 2 h at 30° C. Glycosylation was terminated by flash increasing of temperature to 95° C. for 2 minutes. Peptide mixtures were cleaned up and subjected to UPLC. The separation of the glycosylated peptide from unglycosylated was achieved by normal phase using Waters Acquity UPLC column (BEH glycan, 2.1×150 mm, 1.7-μm particles). Concentration of un- and glycosylated peptides was measured by calculating the area of corresponding peaks (FIG. 3.)

PglB [2] = target: T1, PglB; assay: Synthetic optimization of peptide glycosylation by PglB, HPLC/LC-MS conversion; type: biochemical; design: 10His (C); made in house; host or cells: E. coli Rosetta; settings: peptide:glycolipid 1:5, RT overnight, HPLC peak areas, FIG. 2a
Protocol: To a 10 μL of purified PglB (40 μM) in 1.5 mL eppendorf tube was added 34 μL of buffer (HEPES 10 mM, pH 7.5 containing 1 mM MnCl2 and 1% Triton-X 100). […] For the gel analysis, 8 μL of reaction mixture was treated with 2 μL of 4X SDS sample buffer and heated to 90° C. for 5 minutes. Analytical HPLC was carried out on a Waters 2795 separation module HPLC instrument equipped with a Jasco FP-920 Intelligent Fluorescent Detector (Excitation at 542 nm, Emission at 572 nm). Phenomenex Jupiter 4μ proteo 90A (250×4.6 mm) column was used with a gradient of 0-20%, 20-45%, 45-95% Acetonitrile with 0.1% formic acid at a flow rate of 1 ml/min. Product eluted with a retention time of 6.6 min and identification was performed using the Micromass LCT (TOF ESI). Conversion of the reaction was quantified by integration of the respective peak areas of product and remaining starting peptide.

PglB [3] = target: T1, PglB; assay: In vitro glycosylation of AcrA protein by PglB, ES-MS analysis; type: biochemical; design: 10His (C); made in house; host or cells: E. coli Rosetta; settings: AcrA-His6 129 pmol, glycolipid 25.6 nmol, 25° C., 36 hours
From the text: Using the process described in Example 6a the two consensus Asn sites in the C. jejuni AcrA protein (overexpressed and purified from E. coli using pET24 (AcrA-Cys) according to the literature protocol [Kowarik, M. et. al., Science, 2006, 314, 1148-1150; Lazar, M. N. et. al., Glycobiology, 2005, 15 (4), 361-367]) were glycosylated using glycolipid substrates (Examples 2 and 4).

T1 sequence (Q0P9C8 whole entry): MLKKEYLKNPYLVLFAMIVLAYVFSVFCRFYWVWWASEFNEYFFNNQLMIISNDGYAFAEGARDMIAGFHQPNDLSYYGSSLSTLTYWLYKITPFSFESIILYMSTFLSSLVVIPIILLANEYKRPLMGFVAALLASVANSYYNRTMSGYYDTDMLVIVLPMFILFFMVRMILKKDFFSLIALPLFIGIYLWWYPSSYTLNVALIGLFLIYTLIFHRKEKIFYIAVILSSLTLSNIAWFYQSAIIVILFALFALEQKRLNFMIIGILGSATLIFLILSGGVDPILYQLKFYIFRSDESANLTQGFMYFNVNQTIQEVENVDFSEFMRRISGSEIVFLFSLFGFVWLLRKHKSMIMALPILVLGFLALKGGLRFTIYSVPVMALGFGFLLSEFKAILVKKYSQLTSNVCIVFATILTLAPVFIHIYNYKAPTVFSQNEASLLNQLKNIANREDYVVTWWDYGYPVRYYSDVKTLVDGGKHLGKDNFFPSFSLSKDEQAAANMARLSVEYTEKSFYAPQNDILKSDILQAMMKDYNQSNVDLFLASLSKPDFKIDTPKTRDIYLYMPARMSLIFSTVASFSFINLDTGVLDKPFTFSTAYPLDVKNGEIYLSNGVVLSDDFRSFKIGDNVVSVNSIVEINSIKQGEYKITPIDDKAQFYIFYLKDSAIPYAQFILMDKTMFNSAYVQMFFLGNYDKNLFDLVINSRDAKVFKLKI

SMILES | Km (PglB [1]) | kcat (PglB [1]) | conversion, optimised glycosylation of TAMRA-peptide (PglB [2]) | conversion to the diglycosylated AcrA protein (PglB [3])
CC(=O)NC1C(O)[C@H](O)C(CO)O[C@@H]1OP(=O)(O)OP(=O)(O)OC/C=C(/C)CC/C=C(/C)CC/C=C(/C)CC/C=C(/C)CC/C=C(/C)CC/C=C(\C)CC/C=C(\C)CCC=C(C)C (stereo partly drawn) [Comparative Example 5, P^1-2-Acetamido-2-deoxy-α-D-glucopyranosyl P^2-(2Z,6Z,10Z,14Z,18Z,22E,26E)-3,7,11,15,19,23,27,31-octamethyldotriaconta-2,6,10,14,18,22,26,30-octaen-1-yl diphosphate, reference compound] | 34 ± 10 µM | 0.000375 ± 3.5e-05 s⁻¹ |  | 
CC(=O)NC1[C@@H](OP(=O)([O-])OP(=O)([O-])OC/C=C(/C)CC/C=C(/C)CC/C=C(/C)CC/C=C(/C)CC/C=C(\C)CCC=C(C)C)OC(CO)[C@@H](O)[C@@H]1O.[Na+].[Na+] (stereo partly drawn) [Example 4, P^1-2-Acetamido-2-deoxy-α-D-glucopyranosyl P^2-(2Z,6Z,10Z,14Z,18E)-3,7,11,15,19,23-hexamethyltetraicosa-2,6,10,14,18,22-hexaen-1-yl diphosphate] | 55 ± 10 µM | 0.000385 ± 2.67e-05 s⁻¹ | 92% | > 95%
CC(=O)NC1[C@@H](OP(=O)(O)OP(=O)(O)OC/C=C(/C)CC/C=C(/C)CC/C=C(/C)CCC=C(C)C)OC(CO)[C@@H](O)[C@@H]1O (stereo partly drawn) [Example 1, P^1-2-Acetamido-2-deoxy-α-D-glucopyranosyl P^2-(2Z,6Z,10Z)-3,7,11,15-tetramethyl hexadeca-2,6,10,14-tetraen-1-yl diphosphate] | 77 ± 16 µM | 0.00039 ± 3.5e-05 s⁻¹ |  | 
